Among the data in US8461339B2, “Pharmaceutical compounds” (Sentinel Oncology Limited, priority 2008, dated 2013) are IC50 values, retold here.

For test [1], the system named is HCT116 cells. Description: Anti-proliferative activity, Alamar Blue assay. In kind it is cell-based. As to conditions: Homo sapiens, HCT-116, 72 h incubation, read-out: cell proliferation IC50. On the procedure: The anti-proliferative activities of compounds of the invention are determined by measuring the ability of the compounds to inhibition of cell growth in a number of cell lines. Inhibition of cell growth is measured using the Alamar Blue assay
The following protocol was used: • 1) HT29, HCT116 or Colo205 cells were seeded at an appropriate density and allowed to adhere overnight. • 2) Test compounds were prepared from 10 mM DMSO stocks to give a final concentration range as shown on the graphs. DMSO was constant throughout each experiment. • 3) Test compounds were incubated with the cells for 72 h at 37° C. 5% CO2 in a humidified atmosphere. • 4) Alamar blue 10% (v/v) was then added and incubated for a further 6 h, and fluorescent product detected using the BMG FLUOstar plate reader. • 5) Data was analysed using a 4-parameter logistic equation in Graph Pad Prism.
A general note: Resazurin is reduced to fluorescent resorufin, in cell work by metabolically active cells.

The target of test [2] is T1, Flt3 (h) (Homo sapiens, UniProt P36888).
T1 construct: purchased Millipore
T1 sequence (P36888 27-993): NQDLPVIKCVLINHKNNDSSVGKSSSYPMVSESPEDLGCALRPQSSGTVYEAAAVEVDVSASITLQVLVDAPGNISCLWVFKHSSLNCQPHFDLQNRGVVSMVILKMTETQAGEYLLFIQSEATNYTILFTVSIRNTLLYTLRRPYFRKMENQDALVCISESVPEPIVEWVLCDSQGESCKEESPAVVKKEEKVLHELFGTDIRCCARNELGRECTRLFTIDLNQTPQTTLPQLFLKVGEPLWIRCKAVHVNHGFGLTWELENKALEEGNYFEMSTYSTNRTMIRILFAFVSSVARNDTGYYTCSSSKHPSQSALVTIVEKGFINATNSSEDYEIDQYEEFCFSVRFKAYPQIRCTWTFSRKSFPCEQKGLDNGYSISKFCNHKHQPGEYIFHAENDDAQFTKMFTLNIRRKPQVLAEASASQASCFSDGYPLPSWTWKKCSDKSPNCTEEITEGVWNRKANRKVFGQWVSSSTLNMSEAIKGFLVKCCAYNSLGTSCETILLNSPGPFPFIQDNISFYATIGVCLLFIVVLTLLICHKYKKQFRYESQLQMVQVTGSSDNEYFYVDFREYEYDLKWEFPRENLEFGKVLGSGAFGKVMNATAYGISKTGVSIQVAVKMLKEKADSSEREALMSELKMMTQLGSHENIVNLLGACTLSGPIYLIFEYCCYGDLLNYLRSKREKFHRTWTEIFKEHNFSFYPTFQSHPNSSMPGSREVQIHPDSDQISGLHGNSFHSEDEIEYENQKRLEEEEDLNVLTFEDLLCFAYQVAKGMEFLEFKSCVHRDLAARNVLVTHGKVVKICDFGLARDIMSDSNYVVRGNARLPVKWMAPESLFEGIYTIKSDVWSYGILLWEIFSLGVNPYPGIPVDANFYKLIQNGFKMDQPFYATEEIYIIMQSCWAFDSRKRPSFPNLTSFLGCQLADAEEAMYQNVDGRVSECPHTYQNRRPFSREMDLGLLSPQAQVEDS
Description: Kinase inhibition assay, Flt3 (h) (Millipore, 33P-ATP filter assay). In kind it is biochemical. On the procedure: (§1) Compounds of the invention can be screened for activity against a range of protein kinases using the assays set out below. Kinase inhibition assays were carried out by Millipore, Dundee Technology Park, Dundee, UK.
(§2) In a final reaction volume of 25 μL, Flt3 (h) (5-10 mU) is incubated with 8 mM MOPS pH 7.0, 0.2 mM EDTA, 50 μM EAIYAAPFAKKK, 10 mM MgAcetate and [[…]-33P-ATP] (specific activity approx. 500 cpm/pmol, concentration as required). The reaction is initiated by the addition of the MgATP mix. After incubation for 40 minutes at room temperature, the reaction is stopped by the addition of 5 μL of a 3% phosphoric acid solution. 10 μL of the reaction is then spotted onto a P30 filtermat and washed three times for 5 minutes in 75 mM phosphoric acid and once in methanol prior to drying and scintillation counting.

Test [3] deals with T2, KDR (h) (Homo sapiens, UniProt P35968).
T2 construct: purchased Millipore
T2 sequence (P35968 20-1356): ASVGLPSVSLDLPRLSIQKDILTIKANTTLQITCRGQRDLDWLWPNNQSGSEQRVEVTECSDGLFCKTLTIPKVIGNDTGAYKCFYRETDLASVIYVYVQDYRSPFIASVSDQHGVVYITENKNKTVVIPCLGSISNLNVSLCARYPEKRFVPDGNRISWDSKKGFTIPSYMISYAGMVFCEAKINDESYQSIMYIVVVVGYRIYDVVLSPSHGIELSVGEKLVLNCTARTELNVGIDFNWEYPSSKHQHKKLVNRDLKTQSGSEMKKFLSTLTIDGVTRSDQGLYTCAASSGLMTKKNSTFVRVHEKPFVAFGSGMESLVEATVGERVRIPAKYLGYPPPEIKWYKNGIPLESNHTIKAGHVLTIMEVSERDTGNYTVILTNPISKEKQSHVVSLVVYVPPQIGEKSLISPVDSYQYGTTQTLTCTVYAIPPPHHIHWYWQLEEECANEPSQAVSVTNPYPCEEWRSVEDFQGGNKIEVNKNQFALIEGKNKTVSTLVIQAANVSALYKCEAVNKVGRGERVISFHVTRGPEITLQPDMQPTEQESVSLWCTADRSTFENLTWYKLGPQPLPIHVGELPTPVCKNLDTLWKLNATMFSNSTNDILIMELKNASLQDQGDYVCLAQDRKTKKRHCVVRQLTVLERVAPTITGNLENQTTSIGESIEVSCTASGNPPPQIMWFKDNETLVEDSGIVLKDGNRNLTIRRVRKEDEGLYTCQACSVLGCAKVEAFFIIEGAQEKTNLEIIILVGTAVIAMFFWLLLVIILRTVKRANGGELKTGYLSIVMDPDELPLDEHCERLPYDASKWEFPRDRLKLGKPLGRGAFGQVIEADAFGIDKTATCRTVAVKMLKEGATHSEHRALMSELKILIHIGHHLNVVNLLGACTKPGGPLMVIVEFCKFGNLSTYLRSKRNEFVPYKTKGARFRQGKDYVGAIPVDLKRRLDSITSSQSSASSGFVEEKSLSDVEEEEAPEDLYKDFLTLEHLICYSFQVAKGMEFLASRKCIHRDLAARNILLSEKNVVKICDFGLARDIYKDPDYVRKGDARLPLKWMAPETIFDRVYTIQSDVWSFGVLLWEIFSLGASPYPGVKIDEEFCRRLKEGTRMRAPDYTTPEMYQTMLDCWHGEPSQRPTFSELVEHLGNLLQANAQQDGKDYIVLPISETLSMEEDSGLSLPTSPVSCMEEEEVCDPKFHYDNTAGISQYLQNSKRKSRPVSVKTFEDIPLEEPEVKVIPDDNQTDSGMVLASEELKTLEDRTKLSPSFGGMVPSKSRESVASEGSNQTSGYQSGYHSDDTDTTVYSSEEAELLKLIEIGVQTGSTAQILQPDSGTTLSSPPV
Description: Kinase inhibition assay, KDR (h) (Millipore, 33P-ATP filter assay). In kind it is biochemical. The conditions noted are these: read-out: IC50 against KDR kinase. On the procedure:
as §1
as §2, with “KDR” for “Flt3”, “0.33 mg/mL myelin basic protein,” for “50 μM EAIYAAPFAKKK,”, “Mg Acetate” for “MgAcetate”, “[γ-33P-ATP]” for “[[…]-33P-ATP]”

For test [4], the system named is human HT29 colon carcinoma cells. Nature of the test: HT29 colony forming assay. In kind it is cell-based. The conditions noted are these: HT-29, 240 h, 10 days incubation, colonies counted. On the procedure: The ability of compounds of the invention to prevent growth of discrete colonies of human HT29 colon carcinoma cells over a 10 day time course can be measured using the following protocol: • 1. HT29 cells (ECACC No. 91072201) are seeded in 24-well plates at a concentration of 75 cells per well and allowed to adhere overnight prior to addition of compound or vehicle control. • 2. Test compounds are prepared from 10 mM DMSO stocks to give a final concentration range of 10 μM, 3 μM, 1 μM, 0.3 μM, 0.1 μM, 0.03 μM, 0.01 μM and vehicle control. The DMSO content is constant at 0.1%. • 3. Test compounds are incubated with the cells for 10 days at 37° C. 5% CO2 in a humidified atmosphere. • 4. Colonies are fixed using Carnoy's Fixative (75% methanol, 25% acetic acid) for 5 minutes, and allowed to air dry. • 5. Colonies are stained using 0.4% (w/v) crystal violet for 2 minutes. • 6. Colonies (containing more than 50 cells) are counted by eye and data analysed using a 4-parameter logistic equation in GraphPad Prism.

Test [5] addresses T3, Flt4 (h) (Homo sapiens, UniProt P35916).
T3 construct: purchased Millipore
Nature of the test: Kinase inhibition assay, Flt4 (h) (Millipore, 33P-ATP filter assay). In kind it is biochemical. On the procedure:
as §1
as §2, with “μL, Flt4” for “μL, Flt3”, “EDTA, 500” for “EDTA, 50”, “μM GGEEEEYFELVKKKK,” for “μM EAIYAAPFAKKK,”

The target in test [6] is T4, Yes (h) (Homo sapiens, UniProt P07947).
T4 construct: purchased Millipore
T4 sequence (P07947 whole entry): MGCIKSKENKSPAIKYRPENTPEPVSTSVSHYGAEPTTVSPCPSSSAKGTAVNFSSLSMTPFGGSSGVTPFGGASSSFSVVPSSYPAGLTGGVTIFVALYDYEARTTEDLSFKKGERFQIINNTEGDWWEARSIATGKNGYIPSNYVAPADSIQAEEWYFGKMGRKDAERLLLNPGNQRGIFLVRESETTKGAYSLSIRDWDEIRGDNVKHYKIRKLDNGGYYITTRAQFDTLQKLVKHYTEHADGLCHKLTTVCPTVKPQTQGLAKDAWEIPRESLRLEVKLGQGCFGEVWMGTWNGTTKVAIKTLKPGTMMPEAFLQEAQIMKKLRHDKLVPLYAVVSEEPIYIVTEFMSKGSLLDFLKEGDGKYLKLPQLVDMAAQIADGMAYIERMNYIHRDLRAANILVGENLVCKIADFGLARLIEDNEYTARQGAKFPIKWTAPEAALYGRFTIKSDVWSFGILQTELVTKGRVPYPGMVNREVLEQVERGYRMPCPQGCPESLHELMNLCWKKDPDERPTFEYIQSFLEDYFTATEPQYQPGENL
Nature of the test: Kinase inhibition assay, Yes (h) (Millipore, 33P-ATP filter assay). As to conditions: read-out: IC50 against Yes kinase. In kind it is biochemical. On the procedure:
as §1
as §2, with “μl, Yes” for “μL, Flt3”, “0.1 mg/ml poly(Glu, Tyr) 4:1,” for “50 μM EAIYAAPFAKKK,”, “[γ-33P-ATP]” for “[[…]-33P-ATP]”, “μl” for “μL”, “Filtermat A” for “P30 filtermat”

SMILES strings stand for the structures.

T3 sequence (P35916 25-1363): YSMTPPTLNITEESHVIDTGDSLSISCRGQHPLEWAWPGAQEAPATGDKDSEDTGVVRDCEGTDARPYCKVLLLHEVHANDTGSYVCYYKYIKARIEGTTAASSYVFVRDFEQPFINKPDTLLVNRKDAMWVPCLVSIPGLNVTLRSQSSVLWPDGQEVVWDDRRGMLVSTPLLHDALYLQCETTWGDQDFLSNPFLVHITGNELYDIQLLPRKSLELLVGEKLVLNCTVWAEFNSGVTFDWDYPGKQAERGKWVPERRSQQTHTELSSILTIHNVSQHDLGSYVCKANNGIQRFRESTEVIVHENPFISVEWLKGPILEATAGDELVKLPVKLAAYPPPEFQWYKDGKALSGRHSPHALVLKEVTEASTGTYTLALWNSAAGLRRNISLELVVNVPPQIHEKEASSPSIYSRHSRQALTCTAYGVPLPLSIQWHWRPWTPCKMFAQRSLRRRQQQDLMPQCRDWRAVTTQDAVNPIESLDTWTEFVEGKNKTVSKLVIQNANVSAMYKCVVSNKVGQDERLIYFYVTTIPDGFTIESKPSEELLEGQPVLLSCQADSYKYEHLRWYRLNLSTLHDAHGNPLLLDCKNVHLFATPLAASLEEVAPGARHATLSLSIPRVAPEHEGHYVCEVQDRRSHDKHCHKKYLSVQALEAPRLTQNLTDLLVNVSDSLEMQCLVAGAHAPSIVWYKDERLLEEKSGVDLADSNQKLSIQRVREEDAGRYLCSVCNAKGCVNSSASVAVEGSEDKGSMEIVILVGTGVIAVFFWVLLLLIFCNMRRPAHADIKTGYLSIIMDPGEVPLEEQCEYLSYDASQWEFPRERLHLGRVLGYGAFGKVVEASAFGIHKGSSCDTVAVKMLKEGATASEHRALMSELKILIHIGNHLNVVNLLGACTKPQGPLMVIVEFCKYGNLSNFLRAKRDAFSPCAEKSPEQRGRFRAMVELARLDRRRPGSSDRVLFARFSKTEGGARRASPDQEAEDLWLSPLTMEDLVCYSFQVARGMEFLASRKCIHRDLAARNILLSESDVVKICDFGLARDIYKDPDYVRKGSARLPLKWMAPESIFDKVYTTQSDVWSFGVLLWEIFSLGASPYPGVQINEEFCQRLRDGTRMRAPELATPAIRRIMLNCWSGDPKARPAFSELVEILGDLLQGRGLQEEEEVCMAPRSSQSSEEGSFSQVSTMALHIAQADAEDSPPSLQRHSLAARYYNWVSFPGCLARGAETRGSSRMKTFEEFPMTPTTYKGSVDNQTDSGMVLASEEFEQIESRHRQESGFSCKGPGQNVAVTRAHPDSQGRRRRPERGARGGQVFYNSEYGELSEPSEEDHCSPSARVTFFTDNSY

With `c1ccc2cc(Nc3cc(CN4CCCC4)ccn3)ncc2c1` [Example 1, Isoquinolin-3-yl-(4-pyrrolidin-1-ylmethyl-pyridin-2-yl)-amine], the IC50 in test [1] is below 25000 nM; in test [2] it was below 100 nM; in test [3], below 5000 nM; in test [4], 1380 nM; in test [5], below 500 nM; in test [6], below 5000 nM.
Consider `Clc1ccc2cc(Nc3cc(CN4CCCC4)ccn3)ncc2c1` [Example 14, 7-Chloroisoquinolin-3-yl-(4-pyrrolidin-1-ylmethyl-pyridin-2-yl)-amine], for which the values for the IC50 in test [2] and in test [5] were below 100 nM and above 100 nM, respectively.
On to `COc1ccc2cnc(Nc3cc(CN4CCCC4)ccn3)cc2c1` [Example 17, (6-Methoxy-isoquinolin-3-yl)-(4-pyrrolidin-1-ylmethyl-pyridin-2-yl)-amine], for which the IC50 in test [2] and in test [5] was below 100 nM throughout.
As to `Fc1ccc2cc(Nc3cc(CN4CCCC4)ccn3)ncc2c1` [Example 18, 7-Fluoroisoquinolin-3-yl-(4-pyrrolidin-1-ylmethyl-pyridin-2-yl)-amine], the IC50 in test [2] and in test [5] was below 100 nM each time.
On to `CNC(=O)N1CCN(Cc2ccnc(Nc3cc4ccccc4cn3)c2)CC1` [Example 19, 4-[2-(Isoquinolin-3-ylamino)-pyridin-4-ylmethyl]-piperazine-1-carboxylic acid methylamide], for which the IC50 in test [2] and in test [5] was below 100 nM throughout.
In the case of `CN(C)C(=O)N1CCN(Cc2ccnc(Nc3cc4ccccc4cn3)c2)CC1` [Example 20, 4-[2-(Isoquinolin-3-ylamino)-pyridin-4-ylmethyl]-piperazine-1-carboxylic acid dimethylamide], the IC50 in test [2] and in test [5] was below 100 nM in each case.
As for `c1ccc2cc(Nc3cc(CN4CCNCC4)ccn3)ncc2c1` [Example 21B, Isoquinolin-3-yl-(4-piperazin-1-ylmethyl-pyridin-2-yl)-amine], the IC50 in test [2] was below 5000 nM; in test [5], below 500 nM.
Regarding `NC(=O)N1CCN(Cc2ccnc(Nc3cc4ccccc4cn3)c2)CC1` [Example 21C, 4-[2-(Isoquinolin-3-ylamino)-pyridin-4-ylmethyl]-piperazine-1-carboxylic acid amide], the IC50 is below 100 nM in test [2] and below 500 nM in test [5].
Regarding `CC(=O)N1CCN(Cc2ccnc(Nc3cc4ccccc4cn3)c2)CC1` [Example 22, 1-[4-[2-(Isoquinolin-3-ylamino)-pyridin-4-ylmethyl]-piperazin-1-yl]-ethanone], the IC50 is below 100 nM in test [2] and below 500 nM in test [5].
As for `O=C(CO)N1CCN(Cc2ccnc(Nc3cc4ccccc4cn3)c2)CC1` [Example 23B, 2-Hydroxy-1-{4-[2-(isoquinolin-3-ylamino)-pyridin-4-ylmethyl]-piperazin-1-yl}-ethanone], the IC50 in test [2] and in test [5] was below 100 nM each time.
